Measurements: PubChem BioAssay (NCI)
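Test compounds were applied to cells in 96-well plates for 48 hours at 5 doses. GI50 marks 50% less growth. TGI is the concentration that stops growth completely.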

Legend:
Test in all cases: inhibition of tumour cell growth, NCI panel, 48 h
DU-145 prostate = tested on: DU-145 prostate
NCI-H460 lung = tested on: NCI-H460 lung
EKVX NSCLC = tested on: EKVX NSCLC
MDA-MB-435 = tested on: MDA-MB-435
SW-620 colon = tested on: SW-620 colon
SK-MEL-2 melanoma = tested on: SK-MEL-2 melanoma
SK-MEL-5 melanoma = tested on: SK-MEL-5 melanoma
HCT-15 colon = tested on: HCT-15 colon
SF-539 CNS = tested on: SF-539 CNS
COLO 205 colon = tested on: COLO 205 colon

Row | SMILES | TGI (DU-145 prostate) | TGI (NCI-H460 lung) | TGI (EKVX NSCLC) | TGI (MDA-MB-435) | TGI (SW-620 colon) | TGI (SK-MEL-2 melanoma) | TGI (SK-MEL-5 melanoma) | TGI (HCT-15 colon) | TGI (SF-539 CNS) | TGI (COLO 205 colon) | GI50 (DU-145 prostate) | GI50 (NCI-H460 lung) | GI50 (EKVX NSCLC) | GI50 (MDA-MB-435) | GI50 (SW-620 colon) | GI50 (SK-MEL-2 melanoma) | GI50 (SK-MEL-5 melanoma) | GI50 (HCT-15 colon) | GI50 (SF-539 CNS) | GI50 (COLO 205 colon)
1 | COC(=O)c1c[nH]c(=O)[nH]c1=O | > 100 µM | > 100 µM | > 100 µM | > 100 µM | > 100 µM | > 100 µM | > 100 µM | > 100 µM | > 100 µM | > 100 µM |  |  |  |  |  |  |  |  |  | 
2 | C=C(C=O)C1CC(=O)C(C(=O)OC)[C@@H]2O[C@@](C)(CC2=O)C[C@@H]2OC(=O)[C@]3(O[C@@H]23)[C@@H](C(=O)OC)C1 (stereo partly specified) | > 100 µM | 70.8 µM | 95.1 µM | 33 µM | 47.3 µM | 52.9 µM | 38.5 µM | 38.5 µM | 61.2 µM | > 100 µM | 28.9 µM | 24.4 µM | 27.2 µM | 14.3 µM | 12.2 µM | 15.6 µM | 17 µM | 16.2 µM | 18 µM | 17.2 µM
3 | CN(C)C[C@H]1CC[C@@H](CN(C)C)C1=O | > 50 µM | 37.8 µM | 24.3 µM | 19.6 µM | 5.55 µM | 15.4 µM | 23.6 µM | 11 µM | 21.4 µM | 11.3 µM |  |  |  |  |  |  |  |  |  | 0.759 µM
4 | COc1ccccc1/C=C\c1cnnc2ccccc12 | > 10 µM | > 10 µM | > 10 µM | > 10 µM | > 10 µM | > 10 µM | > 10 µM | > 10 µM | > 10 µM | > 10 µM |  |  |  |  |  |  |  |  |  | 
5 | O=C(O)c1c(O)c2cc(Br)ccc2oc1=O | > 100 µM | > 100 µM | > 100 µM | > 100 µM | > 100 µM | > 100 µM | > 100 µM | > 100 µM | > 100 µM | > 100 µM |  |  |  |  |  |  |  |  |  | 
6 | NC(=O)CCC(NC(=O)OCc1ccccc1)C(=O)OCC(=O)c1ccccc1 (stereo unspecified) | > 100 µM | > 100 µM | > 100 µM | > 100 µM | > 100 µM | > 100 µM | > 100 µM | > 100 µM | > 100 µM | > 100 µM | > 100 µM | > 100 µM | > 100 µM | > 100 µM | > 100 µM | > 100 µM | > 100 µM | > 100 µM | > 100 µM | > 100 µM
7 | CC1(C)N=C(N)N=C(N)N1c1cccc(C#N)c1 | > 100 µM | > 100 µM | > 100 µM | > 100 µM | > 100 µM | > 100 µM | > 100 µM | > 100 µM | > 100 µM | > 100 µM | 6.53 µM | 2.8 µM | 1.09 µM | 0.594 µM | 0.567 µM | 8.99 µM | 8.1 µM | 5.65 µM | 3.74 µM | 31 µM
8 | CC(=O)OCC1OC(OC2C(COC(C)=O)OC(OCCC[S-])C(OC(C)=O)C2OC(C)=O)C(OC(C)=O)C(OC(C)=O)C1OC(C)=O.[Au+].c1ccc(CN2[CH-]N(Cc3ccccc3)C(c3ccccc3)=C2c2ccccc2)cc1 (stereo unspecified) | 17 µM | 12.8 µM | 15.9 µM | 13.6 µM | 13.8 µM | 8.92 µM | 4.41 µM | 12.2 µM | 17.6 µM | 7.61 µM | 4.5 µM | 3.45 µM | 3.15 µM | 3.18 µM | 3.68 µM | 2.99 µM | 1.97 µM | 3.17 µM | 4.46 µM | 2.68 µM
9 | COc1ccc(/C(C)=C(\c2ccc(Cl)cc2)c2ccc(OCCN3CCCC3)cc2)cc1 | 9.4 µM | 7.46 µM | 7.3 µM | 6.14 µM | 7.33 µM | 11.6 µM | 4.64 µM | 4.35 µM | 8.59 µM | 7.74 µM | 4.89 µM | 3.36 µM | 2.97 µM | 1.84 µM | 3.04 µM | 6.45 µM | 1.26 µM | 1.09 µM | 4.32 µM | 3.57 µM
10 | CN(C)CCCNc1nn2c(=O)c3ccccc3nc2c2ccccc12 | 28.4 µM | 13.6 µM | 51.1 µM | 22.5 µM | 19 µM | 43.8 µM | 20.9 µM | 30.2 µM | 15.4 µM | 13 µM | 10.4 µM | 3.35 µM | 14.4 µM | 6.24 µM | 4.94 µM | 20.1 µM | 7.74 µM | 7.05 µM | 3.95 µM | 2.39 µM
11 | O=P(Oc1ccc(Cl)cc1)(Oc1ccc(Cl)cc1)N1CC1 | > 10 µM | > 10 µM | > 10 µM | > 10 µM | > 10 µM | > 10 µM | > 10 µM | > 10 µM | > 10 µM | > 10 µM |  |  |  |  |  |  |  |  |  | 
12 | COc1ccc(/C=C/c2c(C(=O)/C=C/c3ccc(Cl)cc3)c(C)nc3ccccc23)cc1 | 3.25 µM | 5.61 µM | 3.49 µM | 4.67 µM | 6.02 µM | 4.06 µM | 3.11 µM | 4.13 µM | 3.27 µM | 5.29 µM | 1.69 µM | 2.13 µM | 1.55 µM | 2.12 µM | 1.85 µM | 1.83 µM | 1.72 µM | 1.29 µM | 1.78 µM | 2.13 µM
13 | C=C(CN1CCN(c2ccccc2OC)CC1)c1ccc(C(=O)Nc2ccccc2N)cc1 | 39.5 µM | > 50 µM | > 50 µM | 3.38 µM | > 50 µM | 37.9 µM | 11.3 µM | 31.3 µM | 23.7 µM | 37.2 µM | 3.8 µM | 17.5 µM | 10.6 µM | 1.27 µM | 2.1 µM | 12.6 µM | 2.58 µM | 2.03 µM | 2.18 µM | 8.31 µM
14 | COc1cc(C)c(C(=O)O[C@H]2[C@H](O[C@H]3[C@@H](O)COC(O[C@H]4C[C@H]5[C@@H]6CC=C7C[C@@H](O)CC[C@]7(C)[C@H]6CC[C@]5(C)[C@H]4[C@H](C)C(=O)CCC(C)C)[C@@H]3OC(C)=O)OC[C@@H](O)[C@@H]2O)c(C)c1 (stereo partly specified) | 21.9 µM | 1.74 µM | 15.1 µM | 0.13 µM | 0.183 µM | 0.302 µM | 0.0181 µM | 1.94 µM | 0.0137 µM | 0.382 µM | 1.52 µM | < 0.01 µM | 1.06 µM | < 0.01 µM | < 0.01 µM | < 0.01 µM | < 0.01 µM | 0.0543 µM | < 0.01 µM | 0.0307 µM
